These results are taken from patent US12187713B2, “Immunomodulators, compositions and methods thereof” (Betta Pharmaceuticals Co., Ltd, priority 2019, dated 2025).

Each structure is given as a SMILES string. Some results are limits rather than exact numbers.

Chain of PD-1/PD-L1 (Q9NZQ7 19-238): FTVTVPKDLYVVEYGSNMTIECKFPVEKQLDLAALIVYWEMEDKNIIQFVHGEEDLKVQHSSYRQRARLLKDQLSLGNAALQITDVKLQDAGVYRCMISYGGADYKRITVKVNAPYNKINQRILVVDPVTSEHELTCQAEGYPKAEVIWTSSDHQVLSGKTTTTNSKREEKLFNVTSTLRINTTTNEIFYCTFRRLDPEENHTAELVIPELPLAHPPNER

The target of one experiment is PD-1/PD-L1 (Homo sapiens (Human), UniProt Q9NZQ7). The experiment is described as follows: PD-1/PD-L1 Binding Assay (Alphascreen). The settings on record: numeric values. A digest of the protocol:
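PD-1/PD-L1 binding detected by anti-6×His acceptor and streptavidin donor beads after 120 min in the dark at 25 °C. Beforehand, the two proteins were incubated 15 min at 25 °C with inhibitor at 0.015–300 nM (1% DMSO). IC50 comes from a log concentration–response curve.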
Background: In Alpha technology, singlet oxygen from a donor bead excites a nearby acceptor bead.
One may read the IC50 as the point on the concentration scale where inhibition reaches its midpoint. Low readings indicate greater potency in that assay, high ones weaker potency in that assay. `Cc1c(-c2nc3cc(CN4CC5(C4)CS(=O)(=O)C5)c(OC(F)F)cc3o2)cccc1-c1cccc(-c2nc3cc(CN4CCC[C@H]4C(=O)O)c(OC(F)F)cc3o2)c1C` [Example 54, ((6-(difluoromethoxy)-2-(3′-(6-(difluoromethoxy)-5-((2,2-dioxido-2-thia-6-azaspiro [3.3]heptan-6-yl)methyl)benzo[d]oxazol-2-yl)-2,2′-dimethyl-[1,1′-biphenyl]-3-yl)benzo[d]oxazol-5-yl)methyl)-L-proline] returned an IC50 of 6.3 nM.

As for `Cc1c(-c2nc3cc(CN4CC(O)C4)c(OC(F)F)cc3o2)cccc1-c1cccc(-c2nc3cc(CN4CCC[C@H]4C(=O)O)c(OC(F)F)cc3o2)c1C` [Example 20, ((6-(difluoromethoxy)-2-(3′-(6-(difluoromethoxy)-5-((3-hydroxyazetidin-1-yl)methyl)benzo [d]oxazol-2-yl)-2,2′-dimethyl-[1,1′-biphenyl]-3-yl)benzo[d]oxazol-5-yl)methyl)-L-proline], the IC50 is 1.6 nM.

Take `Cc1c(-c2nc3cc(CN4CCCC4)c(F)c(F)c3[nH]2)cccc1-c1cccc(-c2nc3cc(CN4CCC[C@H]4C(=O)O)c(OC(F)F)cc3o2)c1C` [Example 296]: the IC50 was 12 nM.

Molecule `Cc1c(-c2nc3cc(CNCCO)c(OC(F)F)cc3o2)cccc1-c1cccc(-c2nc3cc(CN4CCC[C@H]4C(=O)O)c(OC(F)F)cc3o2)c1C` [Example 7, ((6-(difluoromethoxy)-2-(3′-(6-(difluoromethoxy)-5-(((2-hydroxyethyl)amino)methyl)benzo[d]oxazol-2-yl)-2,2′-dimethyl-[1,1′-biphenyl]-3-yl)benzo[d]oxazol-5-yl)methyl)-L-proline] came in with an IC50 of 0.61 nM.

Still in this experiment, the particulars now being: range symbols.
For the molecule `Cc1c(-c2nc3cc(CN4CCC[C@H]4C(=O)O)c(OC(F)F)cc3o2)cccc1-c1cccc(-c2nc3cc(CN4CC[C@H](C)C4)cc(C#N)c3o2)c1C` [Example 130, ((2-(3′-(7-cyano-5-(((S)-3-methylpyrrolidin-1-yl)methyl)benzo[d]oxazol-2-yl)-2,2′-dimethyl-[1,1′-biphenyl]-3-yl)-6-(difluoromethoxy)benzo[d]oxazol-5-yl)methyl)-L-proline], the IC50 fell in the range of 0.1 to 5 nM.

The molecule `Cc1c(-c2nc3cc(CN4CCC[C@H]4C(=O)O)c(OC(F)F)cc3o2)cccc1-c1cccc(-c2nc3cc(CN4CC[C@H](Cl)C4)cc(C#N)c3o2)c1C` [Example 261, ((2-(3′-(5-(((S)-3-chloropyrrolidin-1-yl)methyl)-7-cyanobenzo [d]oxazol-2-yl)-2,2′-dimethyl-[1,1′-biphenyl]-3-yl)-6-(difluoromethoxy)benzo[d]oxazol-5-yl)methyl)-L-proline] displayed an IC50 of 0.1 to 5 nM.

`COc1nc(OCc2cccc(-c3cccc(-c4nc5cc(CN6CCC[C@H]6C(=O)O)c(OC(F)F)cc5o4)c3C)c2C)nc(OC)c1CN1CC(C)(C)C1` [Example 213, ((6-(difluoromethoxy)-2-(3′-(((5-((3,3-dimethylazetidin-1-yl)methyl)-4,6-dimethoxypyrimidin-2-yl)oxy)methyl)-2,2′-dimethyl-[1,1′-biphenyl]-3-yl)benzo[d]oxazol-5-yl)methyl)-L-proline] yielded an IC50 of 5 to 50 nM.

Take `Cc1c(-c2nc3cc(CN4CC5(COC5)C4)c(OC(F)F)cc3o2)cccc1-c1cccc(-c2nc3cc(CN4CCC[C@H]4C(=O)O)c(OC(F)F)cc3o2)c1C` [Example 47, ((2-(3′-(5-((2-oxa-6-azaspiro[3.3]heptan-6-yl)methyl)-6-(difluoromethoxy)benzo[d]oxazol-2-yl)-2,2′-dimethyl-[1,1′-biphenyl]-3-yl)-6-(difluoromethoxy)benzo[d]oxazol-5-yl)methyl)-L-proline]: the IC50 fell in the range of 0.1 to 5 nM.

Consider `Cc1c(-c2nc3c(o2)CN(CCO)CC3)cccc1-c1cccc(-c2nc3cc(CN4CCC[C@H]4C(=O)O)c(OC(F)F)cc3o2)c1C` [Example 189, ((6-(difluoromethoxy)-2-(3′-(5-(2-hydroxyethyl)-4,5,6,7-tetrahydrooxazolo[5,4-c]pyridin-2-yl)-2,2′-dimethyl-[1,1′-biphenyl]-3-yl)benzo[d]oxazol-5-yl)methyl)-L-proline], for which the IC50 fell in the range of 0.1 to 5 nM.

As to `Cc1c(-c2nc3cc(CN4CCC[C@H]4C(=O)O)c(OC(F)F)cc3o2)cccc1-c1cccc(-c2nc3cc(CN4CC5(CCC(=O)N5)C4)cc(C#N)c3o2)c1C` [Example 151, ((2-(3′-(7-cyano-5-((6-oxo-2,5-diazaspiro[3.4]octan-2-yl)methyl)benzo [d]oxazol-2-yl)-2,2′-dimethyl-[1,1′-biphenyl]-3-yl)-6-(difluoromethoxy)benzo[d]oxazol-5-yl)methyl)-L-proline], the IC50 was in the range of 0.1 to 5 nM.

The molecule `Cc1c(-c2nc3cc(CN4CC5(CCC5)C4)c(OC(F)F)cc3o2)cccc1-c1cccc(-c2nc3cc(CN4CCC[C@H]4C(=O)O)c(OC(F)F)cc3o2)c1C` [Example 48, ((2-(3′-(5-((2-azaspiro [3.3]heptan-2-yl)methyl)-6-(difluoromethoxy)benzo[d]oxazol-2-yl)-2,2′-dimethyl-[1,1′-biphenyl]-3-yl)-6-(difluoromethoxy)benzo[d]oxazol-5-yl)methyl)-L-proline] showed an IC50 of 0.1 to 5 nM.

Regarding `Cc1c(Oc2ccc(CNC[C@@H]3CCC(=O)N3)cn2)cccc1-c1cccc(-c2nc3cc(CN4CCC[C@H]4C(=O)O)c(OC(F)F)cc3o2)c1C` [Example 214, ((6-(difluoromethoxy)-2-(2,2′-dimethyl-3′-((5-(((((S)-5-oxopyrrolidin-2-yl)methyl)amino)methyl)pyridin-2-yl)oxy)-[1,1′-biphenyl]-3-yl)benzo[d]oxazol-5-yl)methyl)-L-proline], the IC50 is > 50 nM.

As for `Cc1c(-c2ccc(CN3CC[C@@H](c4nnn[nH]4)C3)c(F)c2)cccc1-c1cccc(-c2nc3cc(CN4CCC[C@H]4C(=O)O)c(OC(F)F)cc3o2)c1C` [Example 251, ((2-(4″-(((R)-3-(1H-tetrazol-5-yl)pyrrolidin-1-yl)methyl)-3″-fluoro-2,2′-dimethyl-[1,1′:3′,1″- terphenyl]-3-yl)-6-(difluoromethoxy)benzo[d]oxazol-5-yl)methyl)proline], the IC50 lay in the range of 5 to 50 nM.

`CC[C@@H]1CCN1Cc1cc2nc(-c3cccc(-c4cccc(-c5nc6cc(CN7CCC[C@H]7C(=O)O)c(OC(F)F)cc6o5)c4C)c3C)oc2cc1OC(F)F` [Example 42, ((6-(difluoromethoxy)-2-(3′-(6-(difluoromethoxy)-5-(((R)-2-ethylazetidin-1-yl)methyl)benzo[d]oxazol-2-yl)-2,2′-dimethyl-[1,1′-biphenyl]-3-yl)benzo[d]oxazol-5-yl)methyl)-L-proline] came in with an IC50 of 0.1 to 5 nM.

In the case of `Cc1c(-c2nc3cc(CN4CCC[C@@H]4C(=O)O)c(OC(F)F)cc3o2)cccc1-c1cccc(-c2nc3cc(CN4CC(C)(C)C4)c(OC(F)F)cc3o2)c1C#N` [Example 87, ((2-(2′-cyano-3′-(6-(difluoromethoxy)-5-((3,3-dimethylazetidin-1-yl)methyl)benzo[d]oxazol-2-yl)-2-methyl-[1,1′-biphenyl]-3-yl)-6-(difluoromethoxy)benzo[d]oxazol-5-yl)methyl)-D-proline], the IC50 is 0.1 to 5 nM.

For `Cc1c(-c2nc3cc(CN4CCC[C@H]4C(=O)O)c(OC(F)F)cc3o2)cccc1-c1cccc(-c2nc3cc(CNC4CC(O)C4)cc(C#N)c3o2)c1C` (stereo partly shown) [Example 155], the 50% inhibitory concentration (IC50) was 0.1 to 5 nM.

For the molecule `Cc1c(-c2nc3c(o2)CCN(CC(N)=O)C3)cccc1-c1cccc(-c2nc3cc(CN4CCC[C@H]4C(=O)O)c(OC(F)F)cc3o2)c1C` [Example 196, ((2-(3′-(5-(2-amino-2-oxoethyl)-4,5,6,7-tetrahydrooxazolo[4,5-c]pyridin-2-yl)-2,2′-dimethyl-[1,1′-biphenyl]-3-yl)-6-(difluoromethoxy)benzo[d]oxazol-5-yl)methyl)proline], the IC50 fell in the range of 5 to 50 nM.

`Cc1c(-c2nc3c(o2)CCN(CCC(=O)O)C3)cccc1-c1cccc(-c2nc3cc(CN4CCC[C@H]4C(=O)O)c(OC(F)F)cc3o2)c1C` [Example 187, ((2-(3′-(5-(2-carboxyethyl)-4,5,6,7-tetrahydrooxazolo[4,5-c]pyridin-2-yl)-2,2′-dimethyl-[1,1′-biphenyl]-3-yl)-6-(difluoromethoxy)benzo[d]oxazol-5-yl)methyl)-L-proline] returned an IC50 of 0.1 to 5 nM.

For `Cc1c(-c2nc3cc(CN(C)C)c(OCc4ccc(S(C)(=O)=O)cc4)cc3o2)cccc1-c1cccc(-c2nc3cc(CN4CCC[C@H]4C(=O)O)c(OC(F)F)cc3o2)c1C` [Example 126, ((6-(difluoromethoxy)-2-(3′-(5-((dimethylamino)methyl)-6-((4-(methylsulfonyl)benzyl)oxy)benzo[d]oxazol-2-yl)-2,2′-dimethyl-[1,1′-biphenyl]-3-yl)benzo[d]oxazol-5-yl)methyl)-L-proline], the IC50 was in the range of 0.1 to 5 nM.

`Cc1c(-c2nc3cc(CN4CCC[C@H]4C(=O)O)c(OC(F)F)cc3o2)cccc1-c1cccc(-c2nc3cc(CNC4(C)COC4)cc(C#N)c3o2)c1C` [Example 133, ((2-(3′-(7-cyano-5-(((3-methyloxetan-3-yl)amino)methyl)benzo[d]oxazol-2-yl)-2,2′-dimethyl-[1,1′-biphenyl]-3-yl)-6-(difluoromethoxy)benzo[d]oxazol-5-yl)methyl)-L-proline] registered an IC50 of 0.1 to 5 nM.

Take `Cc1c(-c2nc3cc(CN4CCC[C@H]4C(=O)O)c(OC(F)F)cc3o2)cccc1-c1cccc(-c2cnc(CN3CCCC3)c(F)c2)c1CF` [Example 269, ((6-(difluoromethoxy)-2-(3′-(5-fluoro-6-(pyrrolidin-1-ylmethyl)pyridin-3-yl)-2′-(fluoromethyl)-2-methyl-[1,1′-biphenyl]-3-yl)benzo[d]oxazol-5-yl)methyl)-L-proline]: the IC50 was 5 to 50 nM.

In the case of `Cc1c(-c2nc3cc(CN4CC(C)(C)C4)ccc3o2)cccc1-c1cccc(-c2nc3cc(CN4CCC[C@H]4C(=O)O)c(OC(F)F)cc3o2)c1C` [Example 312, ((6-(difluoromethoxy)-2-(3′-(5-((3,3-dimethylazetidin-1-yl)methyl)benzo[d]oxazol-2-yl)-2,2′-dimethyl-[1,1′-biphenyl]-3-yl)benzo[d]oxazol-5-yl)methyl)-L-proline], the IC50 fell in the range of 0.1 to 5 nM.
